Reference: patent US10183927B2, “Crystalline forms of C21H22Cl2N4O2” (BIOMED VALLEY DISCOVERIES, INC., priority 2015, dated 2019)
Where a name gives a salt, the structure may show the parent alone.

Assay: Interconversion of solid forms as a function of relative humidity
Assay type: physicochemical
Description: A vessel containing 4-(5-Chloro-2-isopropylaminopyridin-4-yl)-1H-pyrrole-2-carboxylic acid [1-(3-chlorophenyl)-2-hydroxyethyl]amide Form A was purged with dry nitrogen and relative humidity was monitored. After about 73 minutes the relative humidity had decreased from 36.9% to 1.0%.

Row | Compound | solid form after purging with dry nitrogen (relative humidity decreased from 36.9% to 1.0% after about 73 minutes) | solid form upon sorption of water (sorption of water)
1 | CC(C)Nc1cc(-c2c[nH]c(C(=O)N[C@H](CO)c3cccc(Cl)c3)c2)c(Cl)cn1 [Form A, 4-(5-Chloro-2-isopropylaminopyridin-4-yl)-1H-pyrrole-2-carboxylic acid [1-(3-chlorophenyl)-2-hydroxyethyl]amide HCl hydrate] | determined to be a new form, designated Form D | –
2 | CC(C)Nc1cc(-c2c[nH]c(C(=O)N[C@H](CO)c3cccc(Cl)c3)c2)c(Cl)cn1 [Form D, 4-(5-Chloro-2-isopropylaminopyridin-4-yl)-1H-pyrrole-2-carboxylic acid [1-(3-chlorophenyl)-2-hydroxyethyl]amide HCl] | – | observed to be Form A
